Test results from patent publication US9983211B2 (priority 2007, dated 2018).

Conditions: in vivo

## N#CC(O)c1ccccc1 (stereo not shown) [mandelonitrile]
  times less toxic than sodium cyanide: approximately 18 times
